In US20230047825A1, “ANTIMICROBIAL PEPTIDES” (priority 2019, published 2023):
Converted amounts (≈) assume the structure as drawn. Where a SMILES comes first, the peptide text is derived from it.

How the values were obtained:
[1] = system: MS Staphylococcus aureus ATCC 9144; assay type: cell-based; conditions: for MIC on initial panels / MIC: MSSA9144; for MIC on initial panels: medium and unit inferred; for MIC: untitled table, medium/unit not given, values match RPMI of Table 2, in µg/mL; for MIC, Peptide concentration: ATCC 9144
P. aeruginosa RP73 = assay: Antibacterial activity assay (broth microdilution MIC); assay type: cell-based, Pseudomonas aeruginosa; conditions: in µg/mL; for MIC on initial panels: medium and unit not given; for MIC: untitled table, medium/unit not given
Description: (§1) Antibacterial activity assay.
Synergy experiments were performed following a checkerboard protocol.

VRE12201 = assay: as above; assay type: cell-based, Enterococcus faecalis; conditions: medium and unit inferred
Description: as §1
The bacterial strains used are as in the above examples. A table of strains is provided below to aid understanding.

HEK293 = assay: Cytotoxicity assay (XTT); assay type: cell-based, human; conditions: for Toxicity HEK293: unit not given; for Toxicity HEK293 (EC50), Peptide concentration: value printed in parentheses
Description: Cytotoxicity assay. HeLa and HEK293 cell lines were purchased from ECACC and cultured in Eagle's Minimum Essential Media (EMEM) containing glutamine, supplemented with 10% FBS and 1× non-essential amino acids (NEAA) at 37° C., 10% CO2. Cytotoxicity was measured by incubating starter cultures of cells for 24 hours in a 96 well plate, gently removing the supernatant and replacing it with dilutions of peptides and controls, incubating for a further 24 hours and then staining of the cells with the second generation tetrazolium dye, XTT. […]

A549 = assay: Cytotoxicity assay; assay type: cell-based; conditions: value printed in parentheses
Calu-3 = assay: Cytotoxicity assay; assay type: cell-based; conditions: value printed in parentheses
human red blood cells = assay: Haemolysis assay; conditions: for Toxicity HC50, Peptide concentration: red cells of human, 1 h
Description: Haemolysis assay. Haemolysis was tested by incubating titrations of AMPs in PBS with freshly collected human red blood cells for 1 hour at 37 C. Control wells were treated with 0.1% Triton-X-100 to ensure complete lysis, or PBS-only to represent no lysis. Samples were spun down to remove non-lysed cells and the OD^550 of the supernatant was measured using a Clariostar plate reader. The percentage of haemolysis was calculated as % haemolysis=(AP−AB)/(AC−AB)×100, where AP is the absorbance value for a known peptide concentration, AC is the absorbance of the 0.1% Triton-X-100 control, AB is the absorbance of the PBS control. Data presented are averages and standard error from three biological replicate experiments.
Methods: The natural AMP (termed AMP1) was modified to produce synthetic variants, AMPs 1a, 2a, 2b, 3a and 3b. Minimum inhibitory concentrations (MICs) were determined using the microbroth dilution assay with Mueller Hinton broth (MHB) or RPMI (with 5% FBS) and stability in serum was tested by conducting MICs in MHB containing 10% FBS. Synergy experiments were performed following a checkerboard protocol. Cytotoxicity was tested against HEK293 and HeLa immortalised human cell-lines using the XTT viability stain and by quantifying haemolysis of human red blood cells. Patch clamp analysis was performed using the Port-a-Patch® automated patch-clamp system on DPhPE/DPhPG (model for a Gram-negative plasma membrane) or DPhPG (Gram-positive) model membranes challenged with peptide. The murine lung infection model was performed using the agar bead model with Staphylococcus aureus strain NCTC 13616 (EMRSA-15).

CC(C)C[C@@H](NC(=O)[C@@H](Cc1ccc(O)cc1)NC(=O)[C@@H](Cc1c[nH]cn1)NC(=O)[C@H](NC(=O)[C@@H](CC(C)C)NC(=O)[C@@H](C)NC(=O)[C@@H](C)NC(=O)[C@@H](CCCNC(=N)N)NC(=O)CNC(=O)[C@H](NC(=O)[C@@H](Cc1c[nH]cn1)NC(=O)[C@@H](CCCNC(=N)N)NC(=O)CNC(=O)[C@H](NC(=O)[C@@H](Cc1c[nH]cn1)NC(=O)[C@@H](C)NC(=O)[C@@H](C)NC(=O)[C@@H](CCCNC(=N)N)NC(=O)[C@@H](CCCNC(=N)N)NC(=O)[C@@H](Cc1ccccc1)NC(=O)[C@@H](Cc1ccccc1)NC(=O)[C@@H](CO)NC(=O)CNC(=O)[C@@H](Cc1c[nH]c2ccccc12)NC(=O)CN)C(C)C)C(C)C)[C@H](C)O)C(N)=O [D-pleurocidin-KR] (HELM PEPTIDE1{G.[dW].G.[dS].[dF].[dF].[dR].[dR].[dA].[dA].[dH].[dV].G.[dR].[dH].[dV].G.[dR].[dA].[dA].[dL].[dT].[dH].[dY].[dL].[am]}$$$$V2.0; N-terminus assumed)
MIC on initial panels [1]: 2 µg/mL (≈ 0.709 µM) | MIC [1]: 0.25-0.5 | MIC on initial panels (P. aeruginosa RP73): 16 | MIC (P. aeruginosa RP73): 33 | MIC on initial panels (VRE12201): 8 µg/mL (≈ 2.83 µM) | Toxicity HEK293 (HEK293): 36.4 ± 4.3 | Toxicity HEK293 (EC50), Peptide concentration (HEK293): (36.4 ± 4.3) μg/ml | Toxicity A549 (EC50), Peptide concentration (A549): (56.5 ± 4.5) μg/ml | Toxicity Calu-3 (EC50), Peptide concentration (Calu-3): (39.1 ± 1.8) μg/ml | therapeutic index over red blood cell haemolysis (human red blood cells): at least 100 fold | Toxicity HC50, Peptide concentration (human red blood cells): ~400 µg/mL

CC(C)C[C@@H](NC(=O)[C@@H](Cc1ccc(O)cc1)NC(=O)[C@@H](Cc1c[nH]cn1)NC(=O)[C@H](NC(=O)[C@@H](CC(C)C)NC(=O)[C@@H](C)NC(=O)[C@@H](C)NC(=O)[C@@H](CCCCN)NC(=O)CNC(=O)[C@H](NC(=O)[C@@H](Cc1c[nH]cn1)NC(=O)[C@@H](CCCCN)NC(=O)CNC(=O)[C@H](NC(=O)[C@@H](Cc1c[nH]cn1)NC(=O)[C@@H](C)NC(=O)[C@@H](C)NC(=O)[C@@H](CCCCN)NC(=O)[C@@H](CCCCN)NC(=O)[C@@H](Cc1ccccc1)NC(=O)[C@@H](Cc1ccccc1)NC(=O)[C@@H](CO)NC(=O)CNC(=O)[C@@H](Cc1c[nH]c2ccccc12)NC(=O)CN)C(C)C)C(C)C)[C@H](C)O)C(N)=O [D-pleurocidin] (HELM PEPTIDE1{G.[dW].G.[dS].[dF].[dF].[dK].[dK].[dA].[dA].[dH].[dV].G.[dK].[dH].[dV].G.[dK].[dA].[dA].[dL].[dT].[dH].[dY].[dL].[am]}$$$$V2.0; N-terminus assumed)
MIC on initial panels [1]: 2 µg/mL (≈ 0.738 µM) | MIC [1]: 0.5 | MIC on initial panels (P. aeruginosa RP73): 8-16 | MIC (P. aeruginosa RP73): 16-32 | Toxicity HEK293 (HEK293): 61.4 ± 3.9 | Toxicity HEK293 (EC50), Peptide concentration (HEK293): (61.4 ± 3.9) μg/ml | Toxicity A549 (EC50), Peptide concentration (A549): (79.3 ± 7.2) μg/ml | Toxicity Calu-3 (EC50), Peptide concentration (Calu-3): (41.9 ± 1.8) μg/ml | Toxicity HC50, Peptide concentration (human red blood cells): >400 µg/mL

CC(C)C[C@H](NC(=O)[C@H](Cc1ccc(O)cc1)NC(=O)[C@H](Cc1c[nH]cn1)NC(=O)[C@@H](NC(=O)[C@H](CC(C)C)NC(=O)[C@H](C)NC(=O)[C@H](C)NC(=O)[C@H](CCCCN)NC(=O)CNC(=O)[C@@H](NC(=O)[C@H](Cc1c[nH]cn1)NC(=O)[C@H](CCCCN)NC(=O)CNC(=O)[C@@H](NC(=O)[C@H](Cc1c[nH]cn1)NC(=O)[C@H](C)NC(=O)[C@H](C)NC(=O)[C@H](CCCCN)NC(=O)[C@H](CCCCN)NC(=O)[C@H](Cc1ccccc1)NC(=O)[C@H](Cc1ccccc1)NC(=O)[C@H](CO)NC(=O)CNC(=O)[C@H](Cc1c[nH]c2ccccc12)NC(=O)CN)C(C)C)C(C)C)[C@@H](C)O)C(N)=O [Pleurocidin, reference compound] (H-GWGSFFKKAAHVGKHVGKAALTHYL-NH2; N-terminus assumed)
MIC, Peptide concentration [1]: 2 µg/mL (≈ 0.738 µM) | MIC on initial panels [1]: 4 µg/mL (≈ 1.48 µM) | MIC [1]: 2 | Toxicity HEK293 (HEK293): 87.5 ± 11.1 | Toxicity HEK293 (EC50), Peptide concentration (HEK293): (87.5 ± 11.1) μg/ml | Toxicity HC50, Peptide concentration (human red blood cells): ~400 µg/mL

CC(C)C[C@H](NC(=O)[C@H](Cc1ccc(O)cc1)NC(=O)[C@H](Cc1c[nH]cn1)NC(=O)[C@@H](NC(=O)[C@H](CC(C)C)NC(=O)[C@H](C)NC(=O)[C@H](C)NC(=O)[C@H](CCCNC(=N)N)NC(=O)CNC(=O)[C@@H](NC(=O)[C@H](Cc1c[nH]cn1)NC(=O)[C@H](CCCNC(=N)N)NC(=O)CNC(=O)[C@@H](NC(=O)[C@H](Cc1c[nH]cn1)NC(=O)[C@H](C)NC(=O)[C@H](C)NC(=O)[C@H](CCCNC(=N)N)NC(=O)[C@H](CCCNC(=N)N)NC(=O)[C@H](Cc1ccccc1)NC(=O)[C@H](Cc1ccccc1)NC(=O)[C@H](CO)NC(=O)CNC(=O)[C@H](Cc1c[nH]c2ccccc12)NC(=O)CN)C(C)C)C(C)C)[C@@H](C)O)C(N)=O [Pleurocidin-KR] (H-GWGSFFRRAAHVGRHVGRAALTHYL-NH2; N-terminus assumed)
MIC on initial panels [1]: 2 µg/mL (≈ 0.709 µM) | MIC [1]: 4 | MIC on initial panels (VRE12201): 32 µg/mL (≈ 11.3 µM) | Toxicity HEK293 (HEK293): 40.1 ± 4.1 | Toxicity HEK293 (EC50), Peptide concentration (HEK293): (40.1 ± 4.1) μg/ml | Toxicity HC50, Peptide concentration (human red blood cells): >400 µg/mL

CC(C)C[C@H](NC(=O)[C@H](Cc1ccc(O)cc1)NC(=O)[C@H](Cc1c[nH]cn1)NC(=O)[C@@H](NC(=O)[C@H](CC(C)C)NC(=O)[C@H](C)NC(=O)[C@H](C)NC(=O)[C@H](CCCCN)NC(=O)CNC(=O)[C@H](C)NC(=O)[C@H](Cc1c[nH]cn1)NC(=O)[C@H](CCCCN)NC(=O)CNC(=O)[C@H](C)NC(=O)[C@H](Cc1c[nH]cn1)NC(=O)[C@H](C)NC(=O)[C@H](C)NC(=O)[C@H](CCCCN)NC(=O)[C@H](CCCCN)NC(=O)[C@H](Cc1ccccc1)NC(=O)[C@H](Cc1ccccc1)NC(=O)[C@H](CO)NC(=O)CNC(=O)[C@H](Cc1c[nH]c2ccccc12)NC(=O)CN)[C@@H](C)O)C(N)=O [Pleurocidin-VA] (H-GWGSFFKKAAHAGKHAGKAALTHYL-NH2; N-terminus assumed)
MIC, Peptide concentration [1]: 8 µg/mL (≈ 3.01 µM) | MIC on initial panels [1]: 8 µg/mL (≈ 3.01 µM) | MIC [1]: 32 | MIC on initial panels (VRE12201): > 128 µg/mL | Toxicity HEK293 (HEK293): ~400 | Toxicity HEK293 (EC50), Peptide concentration (HEK293): (~400) μg/ml | Toxicity HC50, Peptide concentration (human red blood cells): >>400 μg/ml
